Laboratory results taken from paper PMC4894940, “The function of the two-pore channel TPC1 depends on dimerization of its carboxy-terminal helix” (Cellular and Molecular Life Sciences: CMLS, 2016).
Residues, ends and D or L forms follow the SMILES beside them.

Tests used:
[1] = biological target: wild type peptide labeled by tryptophane (Arabidopsis thaliana, UniProt Q94KI8); experiment: Label-free MicroScale Thermophoresis (MST), CTH wild type peptide; assay type: binding; settings: 750 nM tryptophane-containing target peptide, ligand 3 nM to 100 µM, PBS pH 7.5, 1 % DMSO, 0.1 % Pluronic, 25 °C, 80 % MST power, 100 % LED power, technical duplicates, read-out: dissociation constant (K D) of CTH homo-dimerization
Protocol: (§1) For MST experiments, peptides corresponding to the consensus helical sequence (RSQRVDTLLHHMLGDEL) and the 3LA mutant (RSQRVDTAAHHMAGDEL) were synthesized (Peptide Speciality Laboratories GmbH, Heidelberg, Germany). To allow for label-free MST binding experiments, additional wild type and mutant peptides were synthesized, which were C-terminally extended by addition of two tryptophanes and a short linker (AAWW).
(§2) Labelfree MicroScale Thermophoresis binding experiments were performed in cooperation with the 2bind GmbH (Regensburg, Germany), using 750 nM tryptophane containing target peptide in PBS pH 7.5, 1 % DMSO, 0.1 % Pluronic with varied concentrations of the ligand peptide at 80 % MST power, 100 % LED power in hydrophilic zero background capillaries on a Monolith NT.labelfree device at 25 °C (NanoTemper Technologies, Munich, Germany). Normalized fluorescence data sets (WT peptide and MT peptide) were analyzed in the thermophoresis and temperature jump. For determination of the binding affinity (K D) of the wild type peptide, the recorded fluorescence was normalized to the fraction bound (0 = unbound, 1 = bound), and fitted using the K D fit formula derived from the law of mass action. Technical duplicates were performed for each experimental setup.

[2] = system: tryptophane-labeled 3LA mutant CTH peptide; experiment: Label-free MicroScale Thermophoresis (MST), 3LA mutant CTH peptide; assay type: binding, Arabidopsis thaliana; settings: 3 nM to 100 µM, 750 nM tryptophane-labeled peptide, PBS pH 7.5, 1 % DMSO, 0.1 % Pluronic, 25 °C, technical duplicates
Protocol: as §1, §2

[3] = biological target: the molecule itself; experiment: MST; label-free MST; 750 nM tryptophane-containing target peptide in PBS pH 7.5, 1 % DMSO, 0.1 % Pluronic, unlabeled ligand peptide varied from 3 nM to 100 µM, 25 °C, Monolith NT.labelfree; monomer to dimer
[4] = system: Myc-tagged C-terminus of TPC1; experiment: Co-immunoprecipitation of TPC1 C-termini in HEK293T cells; assay type: binding, Arabidopsis thaliana; settings: IP anti-Myc, WB anti-Myc / anti-Flag, 3 independent experiments
Text: For the Co-IP tests the C-terminally tagged GFP-fusions were used as templates to amplify the soluble C-terminus (amino acids 673–733) of TPC1 or TPC1-3LP fused to GFP with PCR. The constructs were subcloned into the pENTR-D-TOPO vector and afterwards brought into the expression vectors with EcoRI and XhoI (New England Biolabs), so that they were N-terminally tagged either with 6x Myc (pCS2+MT) or with the FLAG-tag (pCS2 + Flag).
HEK293T cells were propagated in DMEM GIBCO Glutamax (Life Technologies) supplemented with 10 % fetal calf serum. Cells were seeded in 6–well plates (20–30 % confluency) and transfected the next day using 10 µl Roti-Fect (Carl Roth) per 2 µg total DNA (1 µg DNA per plasmid). Two days after transfection cells were washed with 2 ml PBS buffer (Life Technologies) and harvested for immunoprecipitation in 150 µl cold lysis buffer (10 mM HEPES, 150 mM NaCl, 1 % Nonidet P40, 5 % glycerol, pH 7,4/KOH) supplemented with protease inhibitors and phosphatase inhibitors (Complete mini EDTA free and PhosStop, Roche). Cells were disrupted mechanically with a syringe (cannula diameter 0.55 mm). The lysate was cleared by centrifugation at 13.500 rpm and 4 °C for 10 min. Total protein concentrations were measured with a bicinchoninic acid protein assay (Applichem), typically the total protein amount was 500–600 µg. Loading controls of 50 µg of the lysate were taken accordingly and filled up to 20 µl with lysis buffer before adding 5 µl of 5x sample buffer (250 mM Tris, 5 % SDS, 25 % glycerol, 0.25 % bromophenol blue, 250 mM β–mercaptoethanol, pH 6.8/HCl) and boiling. For immunoprecipitation, 3 µg of mouse anti-c-Myc Epitope antibody 9E10 (sc-40, Santa Cruz) was used per sample. Samples were incubated with the antibody for 45 min at 4 °C with a rotator, then 10 µl of protein G Dynabeads (Life Technologies) equilibrated in the lysis buffer was added to each sample and incubation continued for another 45 min. Samples were washed three times with cold lysis buffer before eluting three times with 20 µl of 100 mM glycine (pH 2.5/HCl). […]

## CSCC[C@H](NC(=O)[C@H](Cc1c[nH]cn1)NC(=O)[C@H](Cc1c[nH]cn1)NC(=O)[C@H](CC(C)C)NC(=O)[C@H](CC(C)C)NC(=O)[C@@H](NC(=O)[C@H](CC(=O)O)NC(=O)[C@@H](NC(=O)[C@H](CCCNC(=N)N)NC(=O)[C@H](CCC(N)=O)NC(=O)[C@H](CO)NC(=O)[C@@H](N)CCCNC(=N)N)C(C)C)[C@@H](C)O)C(=O)N[C@@H](CC(C)C)C(=O)NCC(=O)N[C@@H](CC(=O)O)C(=O)N[C@@H](CCC(=O)O)C(=O)N[C@@H](CC(C)C)C(=O)O [CTH peptide] (H-RSQRVDTLLHHMLGDEL-OH)
[1]
  Kd: 3.85 ± 1.1 µM

## RSQRVDTAAHHMAGDEL [3LA mutant, 3LA mutant CTH peptide …]
[2]
  interaction in MST: no interaction was measured
[2]; listed as 3-LA peptide
  interaction in MST: no interactions
[2]; listed as CTH-3LA
  interaction in MST: lack of dimer formation

B1: Synthetic wild type CTH peptide (consensus C-terminal helix of TPC1, residues 707-723) (peptide)
peptide: RSQRVDTLLHHMLGDEL
notes: The two copies are written as one molecule; also called WT peptide; wild type peptide; source: synthetic peptide (Peptide Speciality Laboratories GmbH); not shown: AAWW (short linker and two tryptophans; only on the target copy held at 750 nM), C-terminal, kept
[3]
  Kd: 3.85 ± 1.1 µM

B2: TPC1 C-terminus: soluble C-terminus (residues 673–732) of wild type TPC1, N-terminally 6xMyc- or FLAG-tagged, C-terminal GFP fusion (protein)
chain: EAFFTELDLEEEEKCQGQDSQEKRNRRRSAGSKSRSQRVDTLLHHMLGDELSKPECSTSDT-eGFP
modifications: not fully specified (N-terminus); also: N-terminal 6xMyc or FLAG tag
notes: soluble C-terminus (residues 673–732) of wild type TPC1, N-terminally 6xMyc- or FLAG-tagged, C-terminal GFP fusion
[4]
  Co-IP of C-termini: bound to itself

B3: C-terminus of the TPC1-3LP-mutant: soluble C-terminus of TPC1-3LP, N-terminally 6xMyc- or FLAG-tagged, C-terminal GFP fusion (protein)
chain: EAFFTELDLEEEEKCQGQDSQEKRNRRRSAGSKSRSQRVDTPPHHMPGDELSKPECSTSDT-eGFP
modifications: not fully specified (N-terminus); also: N-terminally 6xMyc- or FLAG-tagged
notes: soluble C-terminus of TPC1-3LP, N-terminally 6xMyc- or FLAG-tagged, C-terminal GFP fusion
[4]
  Co-IP of C-termini: reduced ability to dimerize
[4]; listed as 3LP-Flag-Ct
  Co-IP of C-termini: visibly weaker interaction of the two C-termini
